Measured values taken from ChEMBL document CHEMBL4665675 (J Med Chem, 2020).

test system: HCT-116; assay: Cytotoxicity against human HCT-116 cells by calcein AM reagent based fluorescence method; assay type: functional, cell-based; details: not given

Structure (SMILES)	IC50
COc1cc2c(c(OC)c1OC)-c1ccc(OC)c(=O)cc1[C@@H](NC(=O)CN(OC)C1O[C@H](C(C)=O)[C@H](O)[C@H](O)[C@H]1O)CC2 (stereo not given in full)	300 nM
COc1cc2c(c(OC)c1OC)-c1ccc(OC)c(=O)cc1[C@@H](NC(=O)CN(OC)C1C[C@@H](O)[C@@H](O)[C@@H](CO)O1)CC2 (stereo not given in full)	300 nM
COc1cc2c(c(OC)c1OC)-c1ccc(OC)c(=O)cc1[C@@H](NC(=O)CN(OC)C1C[C@@H](O)[C@@H](O)CO1)CC2 (stereo not given in full)	300 nM
COc1cc2c(c(OC)c1OC)-c1ccc(OC)c(=O)cc1[C@@H](NC(=O)CN(OC)C1C[C@H](O)[C@H](O)CO1)CC2 (stereo not given in full)	300 nM
COc1cc2c(c(OC)c1OC)-c1ccc(OC)c(=O)cc1[C@@H](NC(=O)CN(OC)C1C[C@H](O)[C@H](O)[C@@H](C)O1)CC2 (stereo not given in full)	300 nM
COc1cc2c(c(OC)c1OC)-c1ccc(OC)c(=O)cc1[C@@H](NC(=O)CN(OC)C1O[C@@H]3OC(=O)[C@@H](O)[C@@H]3[C@@H]1O)CC2 (stereo not given in full)	300 nM

test system: BJAB; assay: Cytotoxicity against human BJAB cells; assay type: functional, cell-based; details: not given

Structure (SMILES)	IC50
CCCCCCCCCCCC(=O)OCc1cn([C@H]2CCc3cc(OC)c(OC)c(OC)c3-c3ccc(OC)c(=O)cc32)nn1	4 nM
COc1cc2c(c(OC)c1OC)-c1ccc(OC)c(=O)cc1[C@@H](n1cc(CCC(=O)Cc3ccc4oc(=O)ccc4c3)nn1)CC2	60 nM

test system: RPMI-7951; assay: Antiproliferative activity against human RPMI-7951 cells incubated for 36 hrs; assay type: functional, cell-based; details: RPMI-7951, 36 h

Structure (SMILES)	IC50
COc1cc2c(c(OC)c1OC)-c1ccc(SC)c(=O)cc1[C@@H](CO)C2	134 nM
C=C1Cc2cc(OC)c(OC)c(OC)c2-c2ccc(SC)c(=O)cc21	0.084 nM
CCOC(=O)OC[C@H]1Cc2cc(OC)c(OC)c(OC)c2-c2ccc(SC)c(=O)cc21	0.001 nM

test system: A549; assay: Antiproliferative activity against human A549 cells incubated for 36 hrs; assay type: functional, cell-based; details: A549, 36 h

Structure (SMILES)	IC50
COc1cc2c(c(OC)c1OC)-c1ccc(SC)c(=O)cc1[C@@H](CO)C2	240 nM
C=C1Cc2cc(OC)c(OC)c(OC)c2-c2ccc(SC)c(=O)cc21	252 nM
CCOC(=O)OC[C@H]1Cc2cc(OC)c(OC)c(OC)c2-c2ccc(SC)c(=O)cc21	0.001 nM

test system: KB; assay: Antiproliferative activity against human KB cells incubated for 36 hrs; assay type: functional, cell-based; details: not given

Structure (SMILES)	IC50
COc1cc2c(c(OC)c1OC)-c1ccc(SC)c(=O)cc1[C@@H](CO)C2	144 nM
C=C1Cc2cc(OC)c(OC)c(OC)c2-c2ccc(SC)c(=O)cc21	140 nM
CCOC(=O)OC[C@H]1Cc2cc(OC)c(OC)c(OC)c2-c2ccc(SC)c(=O)cc21	11 nM

test system: HaCaT; assay: Cytotoxicity against human HaCaT cells incubated for 72 hrs by MTT assay; assay type: functional, cell-based; details: not given

Structure (SMILES)	IC50
COC(=O)c1ccc2c(c1)[C@@H](NC(=O)CO)CCc1cc(OC)c(OC)c(OC)c1-2	16 nM
C=C1COc2cc3c(cc21)-c1c(cc(OC)c(OC)c1OC)CC[C@@H]3NC(=O)COC(=O)Cc1nc(CCCCCCCCCC(=O)OC(COC(=O)CCCCCCCCCCCCCCC)COP(=O)([O-])OCC[N+](C)(C)C)n[nH]1 (stereo not given in full)	400 nM
C=C1COc2cc3c(cc21)-c1c(cc(OC)c(OC)c1OC)CC[C@@H]3NC(=O)CO	3 nM
CCCCCCCCCCCCCCCC(=O)OCC(COP(=O)([O-])OCC[N+](C)(C)C)OC(=O)CCCCCCCCCc1n[nH]c(CC(=O)OCC(=O)N[C@H]2CCc3cc(OC)c(OC)c(OC)c3-c3ccc(C(=O)OC)cc32)n1 (stereo not given in full)	400 nM

test system: TE-671; assay: Antiproliferative activity against human TE-671 cells incubated for 36 hrs; assay type: functional, cell-based; details: TE-671, 36 h

Structure (SMILES)	IC50
COc1cc2c(c(OC)c1OC)-c1ccc(SC)c(=O)cc1[C@@H](CO)C2	1320 nM
C=C1Cc2cc(OC)c(OC)c(OC)c2-c2ccc(SC)c(=O)cc21	0.084 nM
CCOC(=O)OC[C@H]1Cc2cc(OC)c(OC)c(OC)c2-c2ccc(SC)c(=O)cc21	0.001 nM

test system: P388; assay: Antiproliferative activity against mouse P388 cells incubated for 36 hrs; assay type: functional, cell-based; details: P388, 36 h

Structure (SMILES)	IC50
COc1cc2c(c(OC)c1OC)-c1ccc(SC)c(=O)cc1[C@@H](CO)C2	144 nM
C=C1Cc2cc(OC)c(OC)c(OC)c2-c2ccc(SC)c(=O)cc21	22 nM
CCOC(=O)OC[C@H]1Cc2cc(OC)c(OC)c(OC)c2-c2ccc(SC)c(=O)cc21	16 nM

test system: KB 3-1; assay: Antiproliferative activity against human KB-31 cells incubated for 96 hrs by spectrophotometric method; assay type: functional, cell-based; details: KB 3-1, 96 h

Structure (SMILES)	IC50
CCOC(=O)NCc1c2c(c(OC)c(OC)c1OC)-c1ccc(OC)c(=O)cc1[C@@H](NC(C)=O)CC2	> 1000 nM
COc1c(CN(C)C(C)=O)c2c(c(OC)c1OC)-c1ccc(OC)c(=O)cc1[C@@H](NC(C)=O)CC2	> 1000 nM
COc1c(CNC(C)=O)c2c(c(OC)c1OC)-c1ccc(OC)c(=O)cc1[C@@H](NC(C)=O)CC2	> 1000 nM
COc1c(COC(C)=O)c2c(c(OC)c1OC)-c1ccc(OC)c(=O)cc1[C@@H](NC(C)=O)CC2	> 1000 nM
COc1c(CNC(=O)c2ccccc2)c2c(c(OC)c1OC)-c1ccc(OC)c(=O)cc1[C@@H](NC(C)=O)CC2	> 1000 nM

test system: HCT-8; assay: Antiproliferative activity against human HCT-8 cells incubated for 36 hrs; assay type: functional, cell-based; details: HCT-8, 36 h

Structure (SMILES)	IC50
COc1cc2c(c(OC)c1OC)-c1ccc(SC)c(=O)cc1[C@@H](CO)C2	160 nM
C=C1Cc2cc(OC)c(OC)c(OC)c2-c2ccc(SC)c(=O)cc21	160 nM
CCOC(=O)OC[C@H]1Cc2cc(OC)c(OC)c(OC)c2-c2ccc(SC)c(=O)cc21	179 nM

test system: HCT-116; assay: Cytotoxicity against human HCT-116 cells by cell titer-glow assay; assay type: functional, cell-based; details: not given

Structure (SMILES)	IC50
COc1cc2c(c(OC)c1OC)-c1ccc(OC)c(=O)cc1[C@@H](NC(=O)CN(OC)C1O[C@H](C(C)=O)[C@H](O)[C@H](O)[C@H]1O)CC2 (stereo not given in full)	300 nM
COc1cc2c(c(OC)c1OC)-c1ccc(OC)c(=O)cc1[C@@H](NC(=O)CN(OC)C1C[C@@H](O)[C@@H](O)[C@@H](CO)O1)CC2 (stereo not given in full)	300 nM
COc1cc2c(c(OC)c1OC)-c1ccc(OC)c(=O)cc1[C@@H](NC(=O)CN(OC)C1C[C@@H](O)[C@@H](O)CO1)CC2 (stereo not given in full)	300 nM
COc1cc2c(c(OC)c1OC)-c1ccc(OC)c(=O)cc1[C@@H](NC(=O)CN(OC)C1C[C@H](O)[C@H](O)CO1)CC2 (stereo not given in full)	300 nM
COc1cc2c(c(OC)c1OC)-c1ccc(OC)c(=O)cc1[C@@H](NC(=O)CN(OC)C1C[C@H](O)[C@H](O)[C@@H](C)O1)CC2 (stereo not given in full)	300 nM
COc1cc2c(c(OC)c1OC)-c1ccc(OC)c(=O)cc1[C@@H](NC(=O)CN(OC)C1O[C@@H]3OC(=O)[C@@H](O)[C@@H]3[C@@H]1O)CC2 (stereo not given in full)	300 nM

test system: PANC-1; assay: Cytotoxicity against human PANC1 cells incubated for 72 hrs by MTT assay; assay type: functional, cell-based; details: PANC-1, 72 h

Structure (SMILES)	IC50
COC(=O)c1ccc2c(c1)[C@@H](NC(=O)CO)CCc1cc(OC)c(OC)c(OC)c1-2	80 nM
C=C1COc2cc3c(cc21)-c1c(cc(OC)c(OC)c1OC)CC[C@@H]3NC(=O)COC(=O)Cc1nc(CCCCCCCCCC(=O)OC(COC(=O)CCCCCCCCCCCCCCC)COP(=O)([O-])OCC[N+](C)(C)C)n[nH]1 (stereo not given in full)	400 nM
C=C1COc2cc3c(cc21)-c1c(cc(OC)c(OC)c1OC)CC[C@@H]3NC(=O)CO	16 nM
CCCCCCCCCCCCCCCC(=O)OCC(COP(=O)([O-])OCC[N+](C)(C)C)OC(=O)CCCCCCCCCc1n[nH]c(CC(=O)OCC(=O)N[C@H]2CCc3cc(OC)c(OC)c(OC)c3-c3ccc(C(=O)OC)cc32)n1 (stereo not given in full)	400 nM

test system: not listed separately; assay: Inhibition of bovine brain tubulin polymerization preincubated for 15 mins followed by GTP addition; set-up: species or system Bos taurus; details: not given

Structure (SMILES)	IC50
COc1cc2c(c(OC)c1OC)-c1ccc(SC)c(=O)cc1[C@@H](CO)C2	3600 nM
C=C1Cc2cc(OC)c(OC)c(OC)c2-c2ccc(SC)c(=O)cc21	2400 nM
CCOC(=O)OC[C@H]1Cc2cc(OC)c(OC)c(OC)c2-c2ccc(SC)c(=O)cc21	3700 nM

test system: not listed separately; assay: Antiproliferative activity against human KB-8511 cells incubated for 96 hrs by spectrophotometric method; assay type: functional, cell-based; details: KB-ChR-8-5-11, 96 h

Structure (SMILES)	IC50
CCOC(=O)NCc1c2c(c(OC)c(OC)c1OC)-c1ccc(OC)c(=O)cc1[C@@H](NC(C)=O)CC2	> 1000 nM
COc1c(CN(C)C(C)=O)c2c(c(OC)c1OC)-c1ccc(OC)c(=O)cc1[C@@H](NC(C)=O)CC2	> 1000 nM
COc1c(CNC(C)=O)c2c(c(OC)c1OC)-c1ccc(OC)c(=O)cc1[C@@H](NC(C)=O)CC2	> 1000 nM
COc1c(COC(C)=O)c2c(c(OC)c1OC)-c1ccc(OC)c(=O)cc1[C@@H](NC(C)=O)CC2	> 1000 nM
COc1c(CNC(=O)c2ccccc2)c2c(c(OC)c1OC)-c1ccc(OC)c(=O)cc1[C@@H](NC(C)=O)CC2	> 1000 nM

test system: SF-268; assay: Cytotoxicity against human SF-268 cells by cell titer-glow assay; assay type: functional, cell-based; details: not given

Structure (SMILES)	IC50
COc1cc2c(c(OC)c1OC)-c1ccc(OC)c(=O)cc1[C@@H](NC(=O)CN(OC)C1O[C@H](C(C)=O)[C@H](O)[C@H](O)[C@H]1O)CC2 (stereo not given in full)	300 nM
COc1cc2c(c(OC)c1OC)-c1ccc(OC)c(=O)cc1[C@@H](NC(=O)CN(OC)C1C[C@@H](O)[C@@H](O)[C@@H](CO)O1)CC2 (stereo not given in full)	300 nM
COc1cc2c(c(OC)c1OC)-c1ccc(OC)c(=O)cc1[C@@H](NC(=O)CN(OC)C1C[C@@H](O)[C@@H](O)CO1)CC2 (stereo not given in full)	300 nM
COc1cc2c(c(OC)c1OC)-c1ccc(OC)c(=O)cc1[C@@H](NC(=O)CN(OC)C1C[C@H](O)[C@H](O)CO1)CC2 (stereo not given in full)	300 nM
COc1cc2c(c(OC)c1OC)-c1ccc(OC)c(=O)cc1[C@@H](NC(=O)CN(OC)C1C[C@H](O)[C@H](O)[C@@H](C)O1)CC2 (stereo not given in full)	300 nM
COc1cc2c(c(OC)c1OC)-c1ccc(OC)c(=O)cc1[C@@H](NC(=O)CN(OC)C1O[C@@H]3OC(=O)[C@@H](O)[C@@H]3[C@@H]1O)CC2 (stereo not given in full)	300 nM

test system: SF-268; assay: Cytotoxicity against human SF-268 cells by calcein AM reagent based fluorescence method; assay type: functional, cell-based; details: not given

Structure (SMILES)	IC50
COc1cc2c(c(OC)c1OC)-c1ccc(OC)c(=O)cc1[C@@H](NC(=O)CN(OC)C1O[C@H](C(C)=O)[C@H](O)[C@H](O)[C@H]1O)CC2 (stereo not given in full)	300 nM
COc1cc2c(c(OC)c1OC)-c1ccc(OC)c(=O)cc1[C@@H](NC(=O)CN(OC)C1C[C@@H](O)[C@@H](O)[C@@H](CO)O1)CC2 (stereo not given in full)	300 nM
COc1cc2c(c(OC)c1OC)-c1ccc(OC)c(=O)cc1[C@@H](NC(=O)CN(OC)C1C[C@@H](O)[C@@H](O)CO1)CC2 (stereo not given in full)	300 nM
COc1cc2c(c(OC)c1OC)-c1ccc(OC)c(=O)cc1[C@@H](NC(=O)CN(OC)C1C[C@H](O)[C@H](O)CO1)CC2 (stereo not given in full)	300 nM
COc1cc2c(c(OC)c1OC)-c1ccc(OC)c(=O)cc1[C@@H](NC(=O)CN(OC)C1C[C@H](O)[C@H](O)[C@@H](C)O1)CC2 (stereo not given in full)	300 nM
COc1cc2c(c(OC)c1OC)-c1ccc(OC)c(=O)cc1[C@@H](NC(=O)CN(OC)C1O[C@@H]3OC(=O)[C@@H](O)[C@@H]3[C@@H]1O)CC2 (stereo not given in full)	300 nM

species: Bos taurus; assay: Inhibition of bovine brain tubulin polymerization preincubated for 15 mins followed by GTP addition and measured for 30 mins by spectrophotometric method; details: not given

Structure (SMILES)	inhibition
CCOC(=O)NCc1c2c(c(OC)c(OC)c1OC)-c1ccc(OC)c(=O)cc1[C@@H](NC(C)=O)CC2	0%
COc1c(CN(C)C(C)=O)c2c(c(OC)c1OC)-c1ccc(OC)c(=O)cc1[C@@H](NC(C)=O)CC2	0%
COc1c(CNC(C)=O)c2c(c(OC)c1OC)-c1ccc(OC)c(=O)cc1[C@@H](NC(C)=O)CC2	0%
COc1c(COC(C)=O)c2c(c(OC)c1OC)-c1ccc(OC)c(=O)cc1[C@@H](NC(C)=O)CC2	100%
COc1c(CNC(=O)c2ccccc2)c2c(c(OC)c1OC)-c1ccc(OC)c(=O)cc1[C@@H](NC(C)=O)CC2	0%
